Test results published in patent US20050084484A1, “Reduction of oxidative stress factors” (Probi AB, priority 1999, published 2005).

Assays:
[1] = test system: monocytes and lymphocytes; test: Effect of ibuprofen on ROS production, comparative study; format: in vivo, human; settings: ibuprofen 500 mg/d for 3 weeks, six healthy volunteers; preliminary data; compared with Lactobacillus plantarum 299v
Method: The measurement of cell oxidation is based on reactive oxygen species (ROS) mediated conversion of nonfluorescent 2,7′-dichlorofluorescein (DCFH), loaded into cells as 2,7′-dichlorofluorescein diacetate, into fluorescent DCF with increased fluorescence emission reflecting enhanced oxidative stress. Freshly isolated PBMC, consisting of approximatively 30% monocytes and 70% lymphocytes, were resuspended in phosphate buffered saline (PBS) followed by incubation with 20 μM […] at 37° C. for 30 min in the dark. The cells were then washed with PBS. The relative fluorescence intensity of the fluorophore 2′,7-dichlorofluorescein, which is formed by peroxide oxidation of its nonfluorescent precursor, was detected with cytofluorimetric assay (FACScan, Becton Dickinson). During flow cytometric analysis monocytes and lymphocytes were gated on the basis of forward scater (FCS) and side scater (SCC). The results are expressed as mean fluorescence intensity […].
In order to investigate the mechanisms behind the reduction of ROS by ibuprofen, a propionic acid derivative and a well-known antiinflammatory drug, ibuprofen was administered in an amount of 500 mg/d to the same group of six healthy volunteers as participated in the study described in Test 1 for 3 weeks.

[2] = test system: Human monocyte macrophage cells; test: Propionic acid induced reduction of oxidative stress (8-Isoprostane EIA); format: cell-based; settings: 10 μM propionic acid 4 h, then LPS 1.0 ng/ml 24 h; versus control cells; mean of 3 experiments
Method: Human monocyte macrophage cells were isolated as described above and 6 million cells were preincubated in 2 ml of RPMI-1640 medium (10% fetalcalf serum, […] of penicillin/streptomycin, 2 mM glutamine) in dishes having a diameter of […]. 10 μM propionic acid was then added and the cells were incubated at 37° C. for 4 h. The medium was subsequently removed and replaced with fresh medium and the cells were stimulated with LPS (lipopolysaccharide), 1.0 ng/ml medium, in order to provoke prooxidant stress. After 24 h the medium was removed and concentrated 10 times by evaporation. Oxidative stress with and without (control cells) propionic acid was evaluated using the 8-Isoprostane EIA kit from Cayman Chemical.
The reduction of oxidative stress expressed as the mean value from 3 experiments of the decrease in the 8-isoprostane level was 47%.

Row | Compound | ROS response of monocytes and lymphocytes [1] | Reduction of oxidative stress, decrease in the 8-isoprostane level [2]
1 | CC(C)Cc1ccc(C(C)C(=O)O)cc1 (centres unmarked) [ibuprofen] | respond in exactly the same way | 
2 | CCC(=O)O [propionic acid] |  | 47%
